According to patent publication US11806393B2, “Flavivirus peptide sequences, epitopes, and methods and uses thereof” (priority 2017, dated 2023):

Each substance was assayed on CD44+ CD4+ T cells (assay: ICS, ZIKV SD001-infected Ifnar1-/- HLA-DRB1*0101 mice). Conditions: 7 days after ZIKV SD001, 6 h stimulation.
Type: cell-based, mouse
Experimental: Ifnar1^−/− HLA-DRB1*0101 mice were infected retro-orbitally with 1×10^2 FFU of ZIKV strain SD001 for 7 days. Splenocytes were stimulated in vitro with the indicated ZIKV-derived HLA-DRB1*0101-binding peptides for 6 h, and the frequency of CD44^+ CD4^+ T cells producing IFNγ, TNF, or IFNγ plus TNF (A), IL-2 (B), and IL-17 (C) were detected using the ICS assay. Data represent the mean±s.e.m. of four independent experiments (n=3-5 mice/experiment; total 16 mice). *P<0.05, **P<0.01, ***P<0.001, ****P<0.0001 by two-tailed Mann-Whitney test. Negative and positive refer to cells incubated alone or with PMA/ionomycin, respectively. […]
(§1) For the 30-peptide epitope screen, 5-week-old female or male mice were infected retro-orbitally (r.o.) with either 1×10^2 focus-forming units (FFU) of ZIKV SD001 or 2×10^3 FFU of DENV2 S221 in 200 μl of 10% fetal bovine serum in phosphate-buffered saline (FBS/PBS). Seven days after infection, spleens were removed and single-cell splenocyte suspensions were prepared. A total of 1×10^6 splenocytes was plated in each well of a 96-well U-bottom plate and stimulated with individual peptides (20 μg crude peptide per well) for 6 h. One hour into the incubation, brefeldin A (GolgiPlug, BD Biosciences) was added to the cells. Positive and negative controls were splenocytes stimulated with phorbol-12-myristate-13-acetate (PMA, 0.1 μg/ml) and ionomycin (1 μg/ml) or incubated alone, respectively.
(§2) After incubation of splenocytes with peptides or PMA/ionomycin, cells were harvested, washed, and incubated with Fc Block (CD16/CD32 mAb 2.4G2, BD Biosciences), followed by staining with fixable Live/Dead blue viability stain (Life technologies) and the following antibodies: PerCP-Cy5.5-conjugated anti-CD3 mAb (clone 145-2C11, Tonbo), APC-eFluor780-conjugated anti-CD4 mAb (clone GK1.5, Invitrogen), Brilliant Violet (BV) 785-conjugated anti-CD44 mAb (clone IMT, Biolegend), PE-conjugated anti-CD11a (clone M17/4, Biolegend), BV605-conjugated anti-CD49d (clone 9C10(MFR4.B, Biolegend), PE-conjugated anti-CD25 mAb (clone PC61, Biolegend), PE-conjugated or biotin-conjugated anti-CD185 mAb (CXCR5, clone SPRC15; Invitrogen), BV 605-conjugated anti-[…] mAb (PD1, clone 29F.1A12; Biolegend), and/or BV 421-conjugated streptavidin (#405225, Biolegend). Cells were then fixed and permeabilized using Cytofix/Cytoperm solution (BD Biosciences), followed by staining with FITC-conjugated anti-IFNγ mAb (clone XMG1.2, Tonbo), Alexa Fluor 700- or APC-conjugated anti-TNF mAb (clone MP6-XT22, eBioscience), PE-, BV 421-, or BV 711-conjugated anti-IL-2 mAb (clone JES6-5H4, Biolegend), APC-conjugated anti-IL-4 mAb (clone 11B11, Biolegend), PE-conjugated anti-IL-5 mAb (clone TRFK5, eBioscience), BV510-conjugated anti-IL-17A mAb (clone 17B7, eBioscience), and/or Alexa Fluor 700-conjugated anti-FoxP3 mAb (clone FJK-16S, eBioscience). Data were collected using an LSR Fortessa flow cytometer (BD Biosciences) and analyzed using FlowJo software X 10.0.7 (Tree Star).

Substance | % CD4+ CD44+ T cells (ZIKV) IL-2+ | % CD4+ CD44+ T cells (ZIKV) INFγ+ TNFα+
NLEYRIMLSVHGSQH [E134-148] | 0.19% | 
WAIYAALTTFITPAV [NS4B40-54] |  | 0.049%

Same assay, conditions: ZIKV SD001, day 7

Substance | cytokines produced by ZIKV-primed CD4+ T cells on peptide stimulation
LPFVMALGLTAVRLV [NS2A134-198] | did not elicit a response by ZIKV-primed cells
NLEYRIMLSVHGSQH [E134-148] | stimulated only IL-2 production
WAIYAALTTFITPAV [NS4B40-54] | stimulated IFNγ plus TNF production

Same assay, conditions: ZIKV-primed CD4+ T cells

Substance | identification as Th1 epitope (IFNγ, TNF, IL-2 ICS)
NLEYRIMLSVHGSQH [E134-148] | Th1 epitopes
WAIYAALTTFITPAV [NS4B40-54] | Th1 epitopes

What follows are substances tested on CD8+ T cells (assay: IFNγ ELISPOT, ZIKV-infected Ifnar-/- HLA-A*0101 transgenic mice). Conditions: HLA-A*0101 mice, 7 days after ZIKV FSS13025.
Type: cell-based, mouse
Experimental: Two ZIKV strains, MR766 (Uganda, 1947) and FSS13025 (Cambodia, 2010), were obtained from the World Reference Center for Emerging Viruses and Arboviruses (WRCEVA). The mouse-adapted DENV2 strain S221 is a triple-plaque purified clone derived from DENV2 D2S1038. Both ZIKV and DENV2 were amplified in C6/36 mosquito cells, and viral titers were measured using baby hamster kidney (BHK)-21 cell-based focus forming assay (FFA). For epitope screening, 5-week old mice (female or male) were infected retro-orbitally (R.O.) with either 1×102 FFU of ZIKV FSS13025 or ZIKV MR766, or 2×10^4 FFU of DENV2 S221 in 200 μl 10% FBS/PBS. Seven days after infection, CD8^+ T cells were isolated from splenocytes and used for ELISPOT assay, while the splenocytes were directly used for ICS assay. Additionally, 5-week old mice were inoculated I.P. with 2×10^3 FFU of DENV2 S221 for 4 weeks.
CD8^+ T cells were isolated from splenocytes using magnetic bead positive selection (Miltenyi Biotec, Germany) 7 days after virus infection. 2×10^5 CD8^+ T cells were stimulated with 1×10^5 LPS-blasts loaded with 10 μg of individual peptide in 96-well flat-bottom plates (IMMOBILON™-P; Millipore, Bedford, Mass.) that were coated with anti-IFNγ mAb (clone AN18; Mabtech, Stockholm, Sweden) in triplicate. Concanavalin A (ConA) was used as positive control. After 20 hours of incubation, biotinylated anti-mouse IFNγ mAb (R4-6A2; Mabtech), followed by ABC peroxidase (Vector Laboratories, Burlingame, Calif., USA) and then 3-amino-9-ethylcarbazole (Sigma-Aldrich, St. Louis, Mo., USA) were added into the wells. […] A peptide inducing a magnitude of >500 SFCs/10^6 CD8^+ T cells was considered as an immunodominant peptide.
The following results are with respect to FIG. 9, where IFNγ ELISPOT was performed using CD8+ T cells isolated from Ifnar^−/− HLA-B*0702 transgenic mice (a and b) and Ifnar^−/− HLA-A*0101 transgenic mice (d and e) 7 days after retro-orbital (R.O.) infection with 1×10^2 FFU of ZIKV strain FSS13025 or MR766. Two independent experiments performed in triplicate were averaged and the error bars represent the SEM. The data are expressed as the mean number of spot forming cells (SFC) per 10^6 CD8^+ T cells. The criteria for positivity were net SFC per 10^6 cells of >20, and a stimulation index of >2.0 when compared with the negative control. Dotted lines represent the cutoff value. * Indicates a positive response. All positive peptides were grouped according the corresponding ZIKV protein (c and f); white and black bars are the total IFNγ response of all identified positive peptides from an indicated protein; numbers in parentheses are the number of positive peptides in this protein. ConA denotes Concanavalin A.

Substance | SFC/10^6 CD8+ T cells, FSS13025
DVEAWRDRY [FSS/MR-NS123-31] | 583 SFC/10^6 CD8+ T cells
ELDPPFGDSY [FSS/MR-E377-386] | 286 SFC/10^6 CD8+ T cells
ETDENRAKV [FSS/MR-E159-167] | 512 SFC/10^6 CD8+ T cells
FSDLYYLTM [FSS/MR-E198-206] | 398 SFC/10^6 CD8+ T cells
GLDFSDLYY [FSS/MR-E195-203] | 993 SFC/10^6 CD8+ T cells
HMCDATMSY [FSS/MR-prM40-48] | 288 SFC/10^6 CD8+ T cells
MSALEFYSY [FSS/MR-NS4B270-278] | 378 SFC/10^6 CD8+ T cells
YAQMWQLLY [FSS/MR-NS5509-517] | 313 SFC/10^6 CD8+ T cells
YLAGASLIY [FSS/MR-NS4B231-239] | 1646 SFC/10^6 CD8+ T cells
YLDKQSDTQY [FSS/MR-E81-90] | 495 SFC/10^6 CD8+ T cells

Same assay, conditions: HLA-A*0101 mice, 7 days after ZIKV MR766

Substance | SFC/10^6 CD8+ T cells, MR766
DVEAWRDRY [FSS/MR-NS123-31] | 260 SFC/10^6 CD8+ T cells
ETDENRAKV [FSS/MR-E159-167] | 516 SFC/10^6 CD8+ T cells
FSDLYYLTM [FSS/MR-E198-206] | 388 SFC/10^6 CD8+ T cells
FTDPSSIAA [FSS/MR-NS3272-280] | 286 SFC/10^6 CD8+ T cells
GLDFSDLYY [FSS/MR-E195-203] | 647 SFC/10^6 CD8+ T cells
MTERFQEAI [FSS/MR-NS4A14-22] | 266 SFC/10^6 CD8+ T cells
VTRRGNAYY [FSS-C125-prM8] | 266 SFC/10^6 CD8+ T cells
YAQMWQLLY [FSS/MR-NS5509-517] | 225 SFC/10^6 CD8+ T cells
YLAGASLIY [FSS/MR-NS4B231-239] | 1574 SFC/10^6 CD8+ T cells
YLDKQSDTQY [FSS/MR-E81-90] | 258 SFC/10^6 CD8+ T cells

Same assay, conditions: HLA-A*0101 mice; immunodominant: >500 SFCs/10^6 CD8+ T cells; shared by both ZIKV strains

Substance | immunodominance in IFNγ ELISPOT
DVEAWRDRY [FSS/MR-NS123-31] | immunodominant
ETDENRAKV [FSS/MR-E159-167] | immunodominant
GLDFSDLYY [FSS/MR-E195-203] | immunodominant
YLAGASLIY [FSS/MR-NS4B231-239] | most immunodominant epitope

These substances were tested on CD8+ T cells (assay: IFNγ-ELISPOT of predicted H-2b-binding ZIKV peptides). Conditions: CD8+ T cells of mice infected with MR766 or FSS13025, day 7; positive: SFC per 10^6 CD8+ T cells ≥20 and stimulation index ≥2.
Type: cell-based, mouse
Experimental: CD8^+ T cells were isolated by magnetic bead positive selection (Miltenyi Biotec, Germany). A total of 2×10^5 CD8^+ T cells were stimulated with 1×10^5 LPS-blast cells as antigen presenting cells (APCs) and 10 μg of individual ZIKV-derived peptide in 96-well flat-bottom plates (IMMOBILON™-P; Millipore, MA) coated with anti-mouse IFNγ monoclonal antibody (mAb) (clone AN18; Mabtech, Sweden) in triplicate. IFNγ-ELISPOT was performed as previously detailed (Elong Ngono et al., 2016). Positive peptides were those with a number of spot-forming cells (SFC) per 10^6 CD8^+ T cells ≥20 and a stimulation index ≥2 based on the negative control (DMSO). […]
The following results are with reference to FIG. 3A and FIG. 3B, where five-week-old LysMCre^+IFNAR^fl/fl were infected retro-orbitally with 10^4 FFU of ZIKV MR766 or FSS13025. […] A total of 244 peptides from ZIKV strains predicted to bind H-2Kb and H-2db with high affinity were screened. Two independent experiments for each ZIKV strain (n=5 mice for each experiment) were performed in triplicate per peptide. The data are expressed as the mean of spot forming cells (SFC) per 10^6 CD8^+ T cells, and error bars are represented as SEM. One-way ANOVA was used to compare the mean of each peptide with the control (DMSO) ([…]). […] The dotted line corresponds to the average amount of IFNγ produced by MOCK mice when stimulated with positive ZIKV-derived peptides (0.19% of IFNγ+CD8^+ T cells).

Substance | Strains (ZIKV strain for which the peptide induced a positive T cell response, IFNγ-ELISPOT)
28 (VSFIFRAN) [compound 28] | MR766/FSS
29 (VVIKNGSYV) [compound 29] | MR766/FSS

Each substance was assayed on CD44+ CD4+ T cells (assay: ICS, DENV2 S221-infected Ifnar1-/- HLA-DRB1*0101 mice). Conditions: 7 days after DENV2 S221, 6 h stimulation.
Type: cell-based, mouse
Experimental: Ifnar1^−/− HLA-DRB1*0101 mice were infected intraperitoneally with 2×10^3 FFU of DENV2 strain […] for 7 days. Splenocytes were stimulated in vitro with the indicated ZIKV-derived HLA-DRB1*0101-binding peptides for 6 h. The frequency of CD44^+ CD4^+ T cells producing IFNγ, TNF, or IFNγ plus TNF (A) or IL-2 (B) were detected using the ICS assay. Data represent the mean±s.e.m. of three independent experiments (n=3-4 mice/experiment; total 10 mice). *P<0.05, **P<0.01, ***P<0.001, ****P<0.0001 by two-tailed Mann-Whitney test. Negative and positive refer to cells incubated alone or with PMA/ionomycin, respectively.
as §1, §2

Substance | % CD4+ CD44+ T cells (DENV) TNFα+ | % CD4+ CD44+ T cells (DENV) IL-2+
LPFVMALGLTAVRLV [NS2A134-198] | 0.397% | 
NLEYRIMLSVHGSQH [E134-148] |  | 0.459%
WAIYAALTTFITPAV [NS4B40-54] | 0.367% | 

Same assay, conditions: DENV2 S221, day 7

Substance | cytokines produced by DENV2-primed CD4+ T cells on peptide stimulation | cross-reactive response by DENV2-primed CD4+ T cells
LPFVMALGLTAVRLV [NS2A134-198] | induce TNF production | 
NLEYRIMLSVHGSQH [E134-148] | induced only IL-2-producing cells | elicited cross-reactive responses
WAIYAALTTFITPAV [NS4B40-54] | induced only TNF-producing cells | elicited cross-reactive responses
